Data: US20250057832A1, “USE OF A CLASS OF 1,4-DIHYDRO-NAPHTHYRIDINE DERIVATIVES IN TREATMENT OF TUMORS” (NEURODAWN PHARMACEUTICAL CO., LTD., priority 2021, published 2025)

Assays:
[1] = test system: U87MG-Luc glioblastoma cell in situ transplantation tumor; experiment: S2 in U87MG-Luc glioblastoma in situ transplantation tumor model in nude mice (Example 4); type: in vivo, BALB/c nude mice; conditions: for Overall survival period: vehicle 31; for Median survival period: vehicle 31.5
Description: Before the transplantation, the U87MG-Luc cells were digested with 0.05%-trypsin-EDTA, resuspended with pre-cooled PBS to 4×10^7 cells/mL, and transferred to ice for later use. The nude mice were anesthetized with isoflurane gas, and then fixed on a stereotaxic machine in a prone position. The scalp of the nude mouse was disinfected with iodophor, and incised sagittally with a scalpel. The incision was cleaned with iodophor. The skull was exposed, and drilled with a skull drill extending 1.0 mm in front of the bregma and deviating the right side 2.0 mm. 5 μL of cell suspension (2×10^5 cells) was manually injected with a 10 μL flat-head microsyringe, with inserting the needle to a depth of 3.5 mm, withdrawing the needle 0.5 mm, and injecting for about 10 minutes. After stopping the injection for 5 minutes, the needle was slowly removed, and the incision was sterilized and sutured. Finally 50,000 units of penicillin was injected intramuscularly to prevent infection.
On days 4, 12, 18, and 25 after the transplantation, 200 μL of 15 mg/mL D-luciferin potassium salt solution, which was filtered and sterilized through a 0.22 μm filter, was injected intraperitoneally. After 10 minutes, IVI chemiluminescence detection (bright field+bioluminescence imaging) was performed using the mouse in vivo imaging system (PE company IVIS Lumina XR). Luorescence intensity was analyzed using Living Image software to obtain fluorescence intensity [p/s], which reflected the size of tumor tissue in the brain of experimental animals.
The survival conditions of experimental animals were monitored, and the animals' death dates were recorded timely.
Quantitative data are expressed as mean±standard error. Each pharmacodynamic index was plotted using GraphPad Prism (8.0.1) software, differences between groups were tested by one-way ANOVA or two-way repeat ANOVA, followed by Fisher's LSD test, and survival analysis was performed by Kaplan-Meier. P<0.05 was defined as a significant difference.

SK-N-SH [2] = experiment: Cell viability assay (Example 2); type: cell-based; conditions: Homo sapiens, 48 hours
Description: (§1) U87MG, T98G, U251, SK-N-SH, A-172 and HepG2 cells were adherently cultured in MEM+10% FBS+1% P/S medium and passaged at 1:3; CT26.WT cells were adherently cultured in RPMI-1640+10% FBS+1% P/S medium and passaged at 1:3; CHO-K1 was cultured adherently in Ham's F-12K+10% FBS+[…] medium and passaged at 1:3.
(§2) The above various cells were resuscitated and stably passaged twice. When the cell density reached above 85%, the cells were digested with 0.05% trypsin-EDTA for three minutes, resuspended, plated in a 96-well plate at the corresponding density, and cultured for 24 hours. The cells were treated with drugs at final concentrations of the culture system of 0.41 μM, 1.23 μM, 3.7 μM, 11.1 μM, 33.3 μM, and 100 μM. After 48 hours of drug treatment, cell viability was determined using CellCounting-Lite™ 2.0 kit. The plate was added with reagents at 100 µL/well according to the CellCounting-Lite™ 2.0 kit instructions, and shaken for 10 minutes. The luminescence value (LUM) was read on a multi-function plate reader, and the relative viability of the cells was calculated.
(§3) Relative viability of tumor cells V (%)=(LUM-LUMbackground)/(LUMnormal control−LUMbackground)×100%. LUMbackground was the background reading of the complete culture medium well added with the detection reagent. The half inhibitory concentration (IC50) was calculated using GraphPad Prism 8.0.1 statistical software.

A172 [3] = experiment: Cell viability assay (Example 2); type: cell-based; conditions: Homo sapiens, A 172; A172, 48 hours
Description: as §1, §2, §3

U251 [4] = experiment: Cell viability assay (Example 2); type: cell-based; conditions: Homo sapiens, U-251; U251, 48 hours
Description: as §1, §2, §3

U87MG [5] = experiment: Cell viability assay (Example 2); type: cell-based; conditions: Homo sapiens, U-87 MG, 48 hours
Description: as §1, §2, §3

CT26.WT = experiment: Cell viability assay (Example 2); type: cell-based; conditions: Mus musculus, 48 hours
Description: as §1, §2, §3

T98G [6] = experiment: Cell viability assay (Example 2); type: cell-based; conditions: Homo sapiens, 48 hours
Description: as §1, §2, §3

SK-N-SH [7] = experiment: Vacuolation phenotype by S2 (Example 2); type: cell-based, human; conditions: 30 μM, 6 hours
Description: as §1
(§4) The cells used above were resuscitated and passaged twice stably. When the cell density reached above 85%, the cells were digested with 0.05% trypsin-EDTA for 3 minutes, resuspended with the culture medium, and plated into a 6-well plate at a certain density, with each well system being 2 mL. The cells were cultured for 24 hours, added with 2 μL of the above-prepared S2 solution (final DMSO concentration 0.1%) to each well according to the grouping, such that the S2 concentration in the cell culture system reached 30 μM.
(§5) After 6 hours of drug treatment, the plate was observed under a microscope with a 20× objective lens, and five fields of view were randomly selected for each well to take photos and record. If bright vacuoles with clear border appeared in the cell in the observed field of view, and at least one of the following conditions was met: 1) a cell contained at least one vacuole with a diameter greater than […]; 2) a cell contained 3 or more vacuoles with a diameter within the range of […], the cell was considered as a methuosis-positive cell (Journal of Medicinal Chemistry 2018 61 (12), 5424-5434).
(§6) CELLpositive: the number of methuosis-positive cells; CELLnormal: the number of cells with normal morphology

A172 [8] = experiment: Vacuolation phenotype by S2 (Example 2); type: cell-based, human; conditions: A172, 30 μM, 6 hours
Description: as §1, §4, §5, §6

U251 [9] = experiment: Vacuolation phenotype by S2 (Example 2); type: cell-based, human; conditions: U251, 30 μM, 6 hours
Description: as §1, §4, §5, §6

U87MG [10] = experiment: Vacuolation phenotype by S2 (Example 2); type: cell-based, human; conditions: 30 μM, 6 hours
Description: as §1, §4, §5, §6

HepG2 = experiment: Vacuolation phenotype by S2 (Example 2); type: cell-based, human; conditions: HepG2, 30 μM, 6 hours
Description: as §1, §4, §5, §6

T98G [11] = experiment: Vacuolation phenotype by S2 (Example 2); type: cell-based, human; conditions: 30 μM, 6 hours
Description: as §1, §4, §5, §6

For `CCOC(=O)C1=C(C)Nc2nc3c(c(N)c2C1c1ccccc1Cl)CC(C)(C)CC3` (stereo not drawn) [Compound S2], the “Overall survival period” value ([1]; S2 0.25 mg/kg) was 32 days, the “Median survival period” value ([1]; S2 0.25 mg/kg) was 32.5 days and the “Survival rate vs vehicle (Log-rank, FIG. 8)” value ([1]; S2 0.5 mg/kg IV) was “significantly increased the survival rate”. For the same compound, the “Tumor growth after two weeks of administration vs vehicle (FIG. 7)” value ([1]; S2 0.5 mg/kg IV) was “significant inhibitory effect on tumor growth”, the “Growth of U87MG in situ tumors in the brain vs vehicle (growth curve, FIG. 6)” value ([1]; S2 0.5 mg/kg IV once a day for 15 days) was “significantly inhibit the growth” and the “Overall survival period” value ([1]; S2 0.5 mg/kg) was 33 days. For the same compound, the “Median survival period” value ([1]; S2 0.5 mg/kg) was 33.5 days, the “Survival rate vs vehicle (Log-rank, FIG. 8)” value ([1]; S2 1 mg/kg IV) was “significantly increased the survival rate” and the “Tumor growth after two weeks of administration vs vehicle (FIG. 7)” value ([1]; S2 1 mg/kg IV) was “significant inhibitory effect on tumor growth”. The “Growth of U87MG in situ tumors in the brain vs vehicle (growth curve, FIG. 6)” value ([1]; S2 1 mg/kg IV once a day for 15 days) was “significantly inhibit the growth”, the “Rank of inhibitory effect on tumor among S2 dose groups” value ([1]; S2 1 mg/kg IV, after two weeks) was “strongest inhibitory effect on tumor” and the “Overall survival period” value ([1]; S2 1 mg/kg) was 36 days. The “Median survival period” value ([1]; S2 1 mg/kg) was 35 days, the “Growth of U87MG glioma in the brain of nude mice (FIG. 7 legend)” value ([1]; administration of S2 for 2 weeks, dose not given in legend) was “inhibited the growth of U87MG glioma” and the “Survival period of nude mice with orthotopically transplanted brain glioma (FIG. 8 legend)” value ([1]; dose not given in legend) was “prolonged the survival period”. For the same compound, the IC50 (SK-N-SH [2]) was 11.4 µM, the IC50 (A172 [3]) was 4.7 µM and the IC50 (U251 [4]) was 14.3 µM. For the same compound, the IC50 (U87MG [5]) was 11.7 µM, the IC50 (CT26.WT) was 7.1 µM and the IC50 (T98G [6]) was 9.4 µM. For the same compound, the Induction of vacuolation (SK-N-SH [7]) was “can induce vacuolation”, the Induction of vacuolation (A172 [8]) was “can induce vacuolation” and the Induction of vacuolation (U251 [9]) was “can induce vacuolation”. For the same compound, the Induction of vacuolation (U87MG [10]) was “can induce vacuolation”, the Induction of vacuolation (HepG2) was “can also induce vacuolation” and the Induction of vacuolation (T98G [11]) was “can induce vacuolation”.
